From US8466311B2, “Neuroprotective compositions and methods” (Sanford-Burnham Medical Research Institute, priority 2006, dated 2013)

How the values were obtained:
[1] = target: T1, bovine serum albumin (BSA) (Bos taurus, UniProt P02769); test: Adduct formation with free cysteine of BSA (streptavidin blot); format: binding; details: NEM pretreatment
T1 construct: purchased WAKO Chemicals Inc. (Tokyo, Japan) or Sigma (St. Louis, Mo.)
Procedure: We tested whether the free cysteine of bovine serum albumin (BSA) could form an adduct with NEPP compounds. If carbon #11 on the NEPP compounds binds to this free cysteine of BSA, then pretreatment with N-ethylmaleimide (NEM), in irreversible thiol alkylating agent, would abolish this binding. […] With streptavidin as a probe, we could then detect proteins bound to NEPP6-biotin. In order to study thiols as targets of NEPP binding, BSA (1 μg per lane) was incubated with various concentrations (0-1000 μM) of N-ethylmaleimide (NEM) for 30 minutes at room temperature. Vehicle or NEPP6-biotin (10 μM) in phosphate-buffered saline (PBS) was added and the mixture was incubated at room temperature for 5 h, subjected to sodium dodecyl sulfate polyacrylamide gel electrophoresis (SDS-PAGE), and probed with peroxidase-conjugated streptavidin. The gel was also stained with Coomassie brilliant blue.

ARE = ARE luciferase reporter in cortical cultures; format: cell-based, rat
Procedure: Cortical cultures (E17, DIV21) were transfected with ARE-luciferase reporter gene DNA (1 μg/well) and co-transfected with pEF6 or pEFNrf2DN. CA (3 μM) or vehicle was then added to the cultures. After a 24-h incubation, cell lysates were used for luciferase reporter gene assays. Values are mean±SEM; *p<0.01 by ANOVA.
Next, transcriptional activation of the HO-1 promoter by NEPP was examined by reporter gene assays in primary neurons. Cortical cultures were transfected with reporter cDNAs (1 μg per well), and 0.7 μM NEPP11 was added to the cultures. After a 24 h incubation, cell lysates were subjected to luciferase reporter assays. […] If the Keap1/Nrf2 pathway, indeed, mediates activation of the HO-1 promoter by NEPP11, mutant Nrf2 protein should inhibit this activation. […] Moreover, the selective activation in neurons may explain the relatively small amplitude of total HO-1 activation seen in the mixed neuronal/glial culture system in which glia predominate.
Transient transfection and measurement of luciferase activity. PC12h cells or cerebrocortical cultures (E17, DIV21) were incubated for 5 h in EBSS containing 1 μg of a plasmid DNA plus Lipofectamine 2000 (Invitrogen, Carlsbad, Calif.). Transfection efficiency was normalized to β-galactosidase activity expressed by co-transfection with pSV-β-gal (Promega). For reporter gene assays, cells were transfected with 1 μg of the reporter construct [ARE(GSTYa)-luciferase] and 0.2 μg pSV-β-gal for 1 hour. The cells were then washed in PBS alone and incubated in the culture medium for another 24 h with or without CA. Firefly luciferase activity and β-galactosidase activity in cell lysates were measured using a Luciferase System and β-Galactosidase Enzyme Assay System, respectively (Promega, Madison, Wis.).
To confirm that CA activated the ARE in these cortical cultures, we performed luciferase reporter gene assays. […] CA accumulates both in neurons and in non-neuronal cells (FIG. 5).

MCAO/reperfusion injury = test: Focal cerebral ischemia: MCAO/reperfusion in mice; format: in vivo, mouse
Procedure: Focal cerebral ischemia and reperfusion. The filament model of middle cerebral artery occlusion (MCAO)/reperfusion was used as described (Gu et al., Science 297:1186-1190, 2002; see Supporting Methods in Supporting Text).
NEPP11 or vehicle was injected intraperitoneally (i.p.) 1 h before and 4 h after MCAO. The area of brain infarction (corrected for possible edema) was assessed on coronal sections from vehicle- and NEPP11-treated mice stained with 2.5% 2,3,5-triphenyltetrazolium chloride 24 h after the onset of reperfusion.
Focal Cerebral Ischemia and Reperfusion. NEPP11 was injected at 100 mg/ml in a 7.5% solution of DMSO in PBS; controls received the diluent alone. The investigator was blinded as to the treatment group. The injected volume was 10 ml/g of body weight, corresponding to 1 mg/kg. […] Other physiological parameters were monitored, including systemic blood pressure, glucose, and arterial blood gasses and pH. […] Occlusion and reperfusion of blood flow were monitored by laser Doppler flowmetry. […]
After the reperfusion period, the animals were killed. […] Areas of infarction occurred in the right middle cerebral artery territory of each brain slice and were quantified with a computerized image analysis system (NIH image 1.62) as described (Gu et al., Science 297:1186-1190, 2000). […]

cerebrocortical neurons = test: NMDA-induced neuronal cell death (excitotoxicity) in cerebrocortical cultures
Procedure: We stained the cultures with both anti-MAP-2 and anti-NeuN monoclonal antibodies to label neuronal dendrites and nuclei, respectively. Vehicle or NEPP11 (0.7 μM) was added to cerebrocortical cultures (E17 and DIV14-21) 60 min before treatment with NMDA (50 μM) for 15 min. The cultures were then incubated for 20 h and subsequently stained with anti-MAP-2 and anti-NeuN and with Hoechst dye. Apoptotic nuclei were identified by morphological changes seen with Hoechst staining. […] We also added zinc protoporphyrin (ZnPP, 10 μM), a relatively specific HO-1 antagonist, simultaneously with NEPP11. The number of apoptotic neurons was assessed by determining the apoptotic index [(number of condensed nuclei in MAP-2 or NeuN-positive cells)/(number of total MAP-2 or NeuN-positive cells)×100%], as reported by Bonfoco et al. (Proc. Natl. Acad. Sci. USA 92:7162-7166, 1995).
Cerebrocortical cultures were prepared from embryonic day-17 Sprague-Dawley rats and used at day 14-21 in vitro (DIV14-21), as described (Bonfoco et al., Proc. Natl. Acad. Sci. USA 92:7162-7166, 1995). To induce predominantly neuronal apoptosis (rather than necrosis), we exposed cortical cultures to 50 mM NMDA plus 5 mM glycine/1.8 mM CaCl2 in nominally Mg^2+-free Earle's balanced salt solution for 15 min (Bonfoco et al., Proc. Natl. Acad. Sci. USA 92:7162-7166, 1995). After exposure to NMDA, the cultures were returned to normal medium containing vehicle or NEPP11 and incubated for 20 hr before analyzing cell survival. To assess the ability of NEPP compounds to block NMDA-induced neuronal apoptosis, we identified apoptotic neurons by double immunofluorescence with anti-NeuN and anti-MAP-2 to specifically label neurons and with Hoechst staining for nuclear morphology to detect apoptosis. The percentage of neurons and non-neuronal cells in our cultures was 33.6±4.9% and 66.4±4.4% (n=4), respectively.
In addition, we used mature cortical cultures (E17, DIV21) to assess excitotoxicity because functional NMDA receptors are expressed on these neurons.

[2] = tested on: thioredoxin and glutaredoxin; test: Expression of Trx and Grx genes in cortical cultures (RT-PCR); format: cell-based, rat; design: expression of the Trx and Grx genes: dose or concentration left out as unconfirmed
Procedure: One caveat to the mechanism of NEPP and other electrophilic compounds acting at the level of Keap1 to induce HO-1 transcription is that NEPP could potentially react indiscriminately with other thiol-containing compounds in cells. To approach this question, we assessed cellular glutathione (GSH) levels to determine whether NEPP11 would affect this abundant antioxidant thiol. Nepp11 or N-ethylmaleimide (NEM) was added at t=0 and levels of total GSH were measured at the indicated times. GSH content of control cortical cultures (set arbitrarily at 100%) was 46.8±4.5 nmol/mg protein. […] In fact, this scenario seems likely, because the Keap1/Nrf2 pathway regulates the expression of γ-GCL in addition to HO-1 (Itoh et al., Mol. Cell. Biol. 24:36-45, 2004). Besides GSH, cells have another major reduction pathway representing the thioredoxin-glutaredoxin system.
Lack of Effect of NEPP Compounds on Expression of Trx and Grx Genes. […]

T1 sequence (P02769 25-607): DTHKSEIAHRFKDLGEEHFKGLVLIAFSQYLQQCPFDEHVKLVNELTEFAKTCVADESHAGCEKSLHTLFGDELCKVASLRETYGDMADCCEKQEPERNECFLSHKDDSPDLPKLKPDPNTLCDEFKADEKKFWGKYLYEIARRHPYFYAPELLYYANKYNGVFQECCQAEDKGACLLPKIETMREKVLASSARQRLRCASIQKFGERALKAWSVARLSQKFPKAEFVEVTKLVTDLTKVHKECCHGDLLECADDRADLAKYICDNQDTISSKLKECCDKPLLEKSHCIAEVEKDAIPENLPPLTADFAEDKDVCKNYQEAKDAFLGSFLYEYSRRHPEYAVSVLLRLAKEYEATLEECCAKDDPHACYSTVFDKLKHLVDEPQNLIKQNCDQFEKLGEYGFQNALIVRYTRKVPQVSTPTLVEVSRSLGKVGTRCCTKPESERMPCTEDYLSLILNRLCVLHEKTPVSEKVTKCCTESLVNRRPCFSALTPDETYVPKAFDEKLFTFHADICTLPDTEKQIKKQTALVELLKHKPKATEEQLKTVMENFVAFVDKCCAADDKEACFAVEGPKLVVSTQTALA

| SMILES | BSA adduct signal after pretreatment with NEM [1] | ARE activation with Nrf2-DN (ARE; 3 μM CA) | ARE-mediated transcription increase (ARE; 3 μM CA, E17 DIV21, 24 h) [fold] | infarct volume, % of the ipsilateral hemisphere (MCAO/reperfusion injury; CA 1 mg/kg i.p. 1 h prior to MCAO, 2-h MCAO/24-h reperfusion, vehicle 51.2±2.4%) [%] | viability at 3 µM (cerebrocortical neurons; Rattus norvegicus, Cerebrocortical neuron, read-out: survival (viable cells) after NMDA) [%] | activity of the ARE core element (ARE; NEPP11 0.7 μM, 24 h) | expression of thioredoxin or glutaredoxin ([2]; NEPP11 1 μM) | expression of the Trx and Grx genes ([2]; NEPP11, 24 hr, RT-PCR) | infarct area in coronal sections (MCAO/reperfusion injury; NEPP11 1 mg/kg i.p. 1 h before and 4 h after MCAO, 2 hr MCAO, 24 hr reperfusion) | number of apoptotic neurons (cerebrocortical neurons; NEPP11 0.7 μM 60 min before NMDA 50 μM 15 min, 20 h) |
| --- | --- | --- | --- | --- | --- | --- | --- | --- | --- | --- |
| CC(C)c1cc2c(c(O)c1O)[C@@]1(C(=O)O)CCCC(C)(C)[C@@H]1CC2 [CA, carnosic acid] | depressed the streptavidin signal in a dose-dependent manner | abrogated by Nrf2-DN | 2.3 | 34.5±3.6 | 36 ± 2.3 |  |  |  |  |  |
| COC(=O)CCCCC/C=C1/C(=O)C=C[C@H]1CCCCCCc1ccc(C)cc1 [NEPP11] |  |  |  |  |  | significantly increased | did not significantly affect | did not significantly affect | significantly reduced | significantly decreased |
